The values that follow come from article PMC6491434 (Scientific Reports, 2019).

For one data set, the target named is T1, ABCB4-I490T (Homo sapiens, UniProt P21439, I490T).
T1 construct: wild type (WT) ABCB4, isoform A (NM_000443.3), into pcDNA3 vector; expressed in transfected cells; host or cells: HepG2
As to the kind of experiment: Canalicular localisation of ABCB4-I490T by indirect immunofluorescence in HepG2 cells. The note with it: 25 µM. Type of data set: cell-based.

The target of another data set is T2, ABCB4-L556R (Homo sapiens, UniProt P21439, L556R).
T2 construct: wild type (WT) ABCB4, isoform A (NM_000443.3), into pcDNA3 vector; expressed in transfected cells; host or cells: HepG2
T2 sequence (P21439 1-1279 isoform P21439-2 L556R): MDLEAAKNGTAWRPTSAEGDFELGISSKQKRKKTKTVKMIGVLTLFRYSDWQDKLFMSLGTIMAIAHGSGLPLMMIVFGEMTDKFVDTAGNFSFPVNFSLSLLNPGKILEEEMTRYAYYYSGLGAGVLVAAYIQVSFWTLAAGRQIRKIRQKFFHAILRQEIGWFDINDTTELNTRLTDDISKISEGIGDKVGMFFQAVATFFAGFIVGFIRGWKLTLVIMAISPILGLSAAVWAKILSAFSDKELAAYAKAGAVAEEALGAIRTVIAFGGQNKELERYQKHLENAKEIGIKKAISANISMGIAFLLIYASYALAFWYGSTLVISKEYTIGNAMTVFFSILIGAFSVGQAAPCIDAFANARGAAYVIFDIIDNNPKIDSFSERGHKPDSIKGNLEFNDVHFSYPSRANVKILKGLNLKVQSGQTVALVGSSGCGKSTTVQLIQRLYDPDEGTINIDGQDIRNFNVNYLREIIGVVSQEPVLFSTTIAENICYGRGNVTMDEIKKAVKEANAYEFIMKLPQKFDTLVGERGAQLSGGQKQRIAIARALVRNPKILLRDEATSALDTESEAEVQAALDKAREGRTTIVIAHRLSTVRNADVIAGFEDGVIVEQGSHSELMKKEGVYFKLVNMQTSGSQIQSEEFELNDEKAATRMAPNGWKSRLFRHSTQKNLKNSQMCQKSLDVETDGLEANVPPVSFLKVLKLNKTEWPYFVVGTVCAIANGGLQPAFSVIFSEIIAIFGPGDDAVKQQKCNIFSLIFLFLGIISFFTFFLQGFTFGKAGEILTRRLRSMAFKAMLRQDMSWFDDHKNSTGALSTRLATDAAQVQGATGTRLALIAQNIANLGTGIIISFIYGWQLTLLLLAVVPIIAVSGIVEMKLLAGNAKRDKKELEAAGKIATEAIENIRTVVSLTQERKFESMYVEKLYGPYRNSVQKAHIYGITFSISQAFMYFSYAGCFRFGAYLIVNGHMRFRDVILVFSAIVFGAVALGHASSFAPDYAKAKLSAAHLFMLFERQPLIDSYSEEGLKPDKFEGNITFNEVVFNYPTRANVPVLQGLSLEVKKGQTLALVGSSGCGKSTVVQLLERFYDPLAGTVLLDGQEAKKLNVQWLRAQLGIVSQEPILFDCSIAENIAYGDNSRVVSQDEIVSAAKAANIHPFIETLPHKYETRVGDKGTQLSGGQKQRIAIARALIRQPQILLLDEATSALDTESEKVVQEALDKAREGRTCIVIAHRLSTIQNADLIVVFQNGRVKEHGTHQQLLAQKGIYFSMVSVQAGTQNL
As to the kind of experiment: Canalicular localisation of ABCB4-L556R by indirect immunofluorescence in HepG2 cells. It is filed as cell-based. The note with it: 25 µM.

Data set [1] addresses T3, ABCB4-I541F (Homo sapiens, UniProt P21439, I541F). As to the kind of experiment: Maturation of ABCB4-I541F by immunoblot in HEK cells. It is filed as cell-based. On the set-up: wild type (WT) ABCB4, isoform A (NM_000443.3), into pcDNA3 vector; expressed in transfected cells; host or cells: HEK-293 (immunoblot, PC secretion). Conditions: 100 µM, 16 hours. As to the method: For transient transfection of HEK cells, they were seeded at subconfluent levels in the adequate tissue culture wells at least six hours before transfection. Turbofect (Thermo Fisher scientific) was used at a ratio of reagent:DNA of 2:1 according to manufacturer’s instructions. For transient transfection of HepG2 cells, subconfluent cultures were seeded in the adequate culture wells 24 hours before transfection. Lipofectamine 3000 (Thermo Fisher Scientific) was used at a ratio of reagent:DNA of 1.5:1 according to manufacturer’s instructions. Cell treatments and processing for further analyses were performed at least 16 hours post-transfection.
(§1) Cyclosporin A (CsA) was from Santa Cruz Biotechnologies (Dallas, TX). […] Each compound was solubilized in dimethylsulfoxide (DMSO) as 1000X concentrated stock solutions in order to treat cells with 5 µM to 100 µM final concentrations, using DMSO as control vehicle at the same dilution (0.1% DMSO for all conditions). The cells were treated 24 hours post-transfection with these drugs during 16 hours, except for the viability assays for which cells were treated during three days. After drug treatment, cells were used for immunoanalyses, cell viability assays or PC secretion assays.
Western blots and indirect immunofluorescence were performed as previously described[9],[50]. […] Signals were detected with ECL prime western blotting detection reagent (GE Healthcare, Velizy-Villacoublay, France) and quantified in the linear range of detection using ImageJ 1.50i software (U.S. National Institutes of Health, Bethesda, MD).
A general note: In western blotting, separated proteins are transferred to a membrane and probed.

A further data set has as its target CK1. As to the kind of experiment: protein kinase catalytic activity assay, CK1. It is filed as biochemical. The note with it: read-out: IC50 towards CK1.
Data set [2] has as its target T4, ABCB4-WT (Homo sapiens, UniProt P21439).
T4 construct: wild type (WT) ABCB4, isoform A (NM_000443.3), into pcDNA3 vector; expressed in transfected cells; host or cells: HEK-293
As to the kind of experiment: ABCB4-mediated phosphatidylcholine secretion, HEK cells expressing ABCB4-WT. Type of data set: cell-based. Conditions: from dose-response curves of Fig. 4C, read-out: IC50 (µM) (min-max) on the PC secretion activity of ABCB4-WT. On the procedure: as §1
(§2) HEK cells were seeded in 0.01% poly-L-lysine (Sigma) pre-coated 6-well plates of 10 cm² area per well (1.3 × 10^6 cells per well). After transient transfection of the empty vector (control), plasmids encoding ABCB4-WT or its variants, cells were incubated during 24 hours at 37 °C in serum-free medium supplemented with 0.5 mM sodium taurocholate (Sigma) and 0.02% fatty acid–free bovine serum albumin (Sigma). Then, the secreted PC was quantified from the collected media using a fluoro-enzymatic assay previously described. Each condition was analysed in triplicate, after background subtraction, and results were normalized to the expression levels of ABCB4 determined by immunoblots of the corresponding cell lysates.

A further data set concerns the target T5, CDK2/A (Homo sapiens, UniProt P24941).
T5 construct: made in house
As to the kind of experiment: protein kinase catalytic activity assay, CDK2/cyclin A. It is filed as biochemical. The note with it: read-out: IC50 towards CDK2/A.

A further data set deals with T6, CDK5/p25 (Homo sapiens, UniProt Q00535).
T6 construct: made in house
T6 sequence (Q00535 whole entry, species assumed): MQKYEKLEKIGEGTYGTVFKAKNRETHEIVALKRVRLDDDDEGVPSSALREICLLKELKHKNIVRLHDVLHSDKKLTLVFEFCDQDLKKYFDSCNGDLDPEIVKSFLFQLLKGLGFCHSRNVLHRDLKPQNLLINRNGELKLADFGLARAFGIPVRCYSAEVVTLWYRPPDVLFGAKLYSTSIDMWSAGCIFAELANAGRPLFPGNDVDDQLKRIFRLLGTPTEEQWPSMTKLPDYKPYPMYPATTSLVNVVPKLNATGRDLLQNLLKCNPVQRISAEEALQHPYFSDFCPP
T6 sequence (Q15078 99-307 partner limits assumed, species assumed): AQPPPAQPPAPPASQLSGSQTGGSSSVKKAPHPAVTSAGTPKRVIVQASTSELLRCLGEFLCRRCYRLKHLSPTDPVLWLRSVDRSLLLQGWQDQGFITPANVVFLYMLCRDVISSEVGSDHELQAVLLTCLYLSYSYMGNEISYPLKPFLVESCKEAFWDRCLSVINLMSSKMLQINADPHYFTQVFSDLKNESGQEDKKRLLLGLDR
As to the kind of experiment: protein kinase catalytic activity assay, CDK5/p25. It is filed as biochemical. Conditions: read-out: IC50 towards CDK5/p25.

The target in another data set is T7, CDK9/T (Homo sapiens, UniProt P50750).
T7 construct: made in house
As to the kind of experiment: protein kinase catalytic activity assay, CDK9/cyclin T. It is filed as biochemical. The note with it: read-out: IC50 towards CDK9/T.

The target of data set [3] is T3, ABCB4-I541F. As to the kind of experiment: ABCB4-mediated phosphatidylcholine secretion, HEK cells expressing ABCB4-I541F. Type of data set: cell-based. On the set-up: wild type (WT) ABCB4, isoform A (NM_000443.3), into pcDNA3 vector; expressed in transfected cells; host or cells: HEK-293 (immunoblot, PC secretion). Conditions: 25 µM, vehicle 7.1 ± 0.8%. On the procedure: as §1, §2

A short description of data set [4]: Cell viability, MTT assay. Conditions: human. On the procedure:
as §1
(§3) Cell viability was assessed by the conversion of MTT (3-[4,5-dimethylthiazol-2-yl]-2,5 diphenyl tetrazolium bromide) into formazan crystals by living cells, as described. In brief, HEK cells were seeded in 96-well plates in triplicate for each tested condition, including controls (no cells, no treatment, treatment with vehicle). […] These conditions were optimized in order to maintain the absorbance at 540 nm of the blanks below 0.1 OD unit (negative controls) and the absorbance at 540 nm for untreated cells between 1.0 and 1.3 OD units (positive controls). Then culture media were gently washed out, cells were lysed in 100 µL of pure DMSO and absorbance at 540 nm was measured using a multiplate cytofluorimeter SpectraFluor from Tecan (Männedorf, Switzerland). Cell viability was calculated for each triplicate after background subtraction and expressed as percentage of the mean for cells treated with vehicle only.
A general note: Tetrazolium assays rely on reduction of a dye to a coloured formazan, in cell work by metabolically active cells.

The test system of another data set is HEK cells. As to the kind of experiment: Cell viability, MTT assay. Conditions: three days. On the procedure:
as §1, §3

For data set [5], the target named is T3, ABCB4-I541F. Details: wild type (WT) ABCB4, isoform A (NM_000443.3), into pcDNA3 vector; expressed in transfected cells; host or cells: HEK-293 (immunoblot, PC secretion); HepG2 (immunofluorescence); method as in PMID 22184139, PMID 19185004. Conditions: cited from earlier work.
Data set [6] concerns the target T4, ABCB4-WT. On the set-up: method as in PMID 24806754. The note with it: cited from earlier work.

A value given as a limit tells only on which side of the number the result lay.

T4 sequence (P21439 1-1279 isoform P21439-2): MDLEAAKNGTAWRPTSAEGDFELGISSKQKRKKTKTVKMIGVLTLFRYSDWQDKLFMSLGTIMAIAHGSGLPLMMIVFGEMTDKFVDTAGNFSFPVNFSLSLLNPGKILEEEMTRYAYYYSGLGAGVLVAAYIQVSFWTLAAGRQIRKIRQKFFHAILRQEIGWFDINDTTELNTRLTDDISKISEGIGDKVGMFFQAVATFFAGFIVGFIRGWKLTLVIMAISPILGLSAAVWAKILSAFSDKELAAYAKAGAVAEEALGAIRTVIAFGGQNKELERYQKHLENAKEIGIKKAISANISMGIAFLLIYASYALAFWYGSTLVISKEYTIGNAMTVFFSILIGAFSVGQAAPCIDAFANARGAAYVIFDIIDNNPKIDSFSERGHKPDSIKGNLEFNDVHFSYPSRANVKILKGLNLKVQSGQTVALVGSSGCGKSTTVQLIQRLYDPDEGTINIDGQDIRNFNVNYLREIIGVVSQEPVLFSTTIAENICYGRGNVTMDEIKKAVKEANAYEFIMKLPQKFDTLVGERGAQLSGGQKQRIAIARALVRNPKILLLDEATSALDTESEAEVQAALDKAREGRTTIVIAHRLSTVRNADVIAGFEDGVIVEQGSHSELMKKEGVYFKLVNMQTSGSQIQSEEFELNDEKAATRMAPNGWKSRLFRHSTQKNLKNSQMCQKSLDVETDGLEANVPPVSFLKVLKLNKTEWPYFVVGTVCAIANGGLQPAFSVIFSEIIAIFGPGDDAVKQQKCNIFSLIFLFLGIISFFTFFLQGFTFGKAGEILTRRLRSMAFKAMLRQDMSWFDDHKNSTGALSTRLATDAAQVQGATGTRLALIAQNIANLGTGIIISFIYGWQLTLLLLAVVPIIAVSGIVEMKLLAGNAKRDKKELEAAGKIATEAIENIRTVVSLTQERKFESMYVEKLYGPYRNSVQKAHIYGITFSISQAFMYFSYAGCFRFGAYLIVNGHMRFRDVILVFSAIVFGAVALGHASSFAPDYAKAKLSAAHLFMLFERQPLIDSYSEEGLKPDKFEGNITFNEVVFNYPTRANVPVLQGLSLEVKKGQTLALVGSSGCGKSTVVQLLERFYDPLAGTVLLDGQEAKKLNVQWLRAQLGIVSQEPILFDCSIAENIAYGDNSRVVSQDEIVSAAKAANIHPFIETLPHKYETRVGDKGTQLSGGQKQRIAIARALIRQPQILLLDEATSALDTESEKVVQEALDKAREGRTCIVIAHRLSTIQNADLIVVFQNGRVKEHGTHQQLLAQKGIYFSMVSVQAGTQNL
T1 sequence (P21439 1-1279 isoform P21439-2 I490T): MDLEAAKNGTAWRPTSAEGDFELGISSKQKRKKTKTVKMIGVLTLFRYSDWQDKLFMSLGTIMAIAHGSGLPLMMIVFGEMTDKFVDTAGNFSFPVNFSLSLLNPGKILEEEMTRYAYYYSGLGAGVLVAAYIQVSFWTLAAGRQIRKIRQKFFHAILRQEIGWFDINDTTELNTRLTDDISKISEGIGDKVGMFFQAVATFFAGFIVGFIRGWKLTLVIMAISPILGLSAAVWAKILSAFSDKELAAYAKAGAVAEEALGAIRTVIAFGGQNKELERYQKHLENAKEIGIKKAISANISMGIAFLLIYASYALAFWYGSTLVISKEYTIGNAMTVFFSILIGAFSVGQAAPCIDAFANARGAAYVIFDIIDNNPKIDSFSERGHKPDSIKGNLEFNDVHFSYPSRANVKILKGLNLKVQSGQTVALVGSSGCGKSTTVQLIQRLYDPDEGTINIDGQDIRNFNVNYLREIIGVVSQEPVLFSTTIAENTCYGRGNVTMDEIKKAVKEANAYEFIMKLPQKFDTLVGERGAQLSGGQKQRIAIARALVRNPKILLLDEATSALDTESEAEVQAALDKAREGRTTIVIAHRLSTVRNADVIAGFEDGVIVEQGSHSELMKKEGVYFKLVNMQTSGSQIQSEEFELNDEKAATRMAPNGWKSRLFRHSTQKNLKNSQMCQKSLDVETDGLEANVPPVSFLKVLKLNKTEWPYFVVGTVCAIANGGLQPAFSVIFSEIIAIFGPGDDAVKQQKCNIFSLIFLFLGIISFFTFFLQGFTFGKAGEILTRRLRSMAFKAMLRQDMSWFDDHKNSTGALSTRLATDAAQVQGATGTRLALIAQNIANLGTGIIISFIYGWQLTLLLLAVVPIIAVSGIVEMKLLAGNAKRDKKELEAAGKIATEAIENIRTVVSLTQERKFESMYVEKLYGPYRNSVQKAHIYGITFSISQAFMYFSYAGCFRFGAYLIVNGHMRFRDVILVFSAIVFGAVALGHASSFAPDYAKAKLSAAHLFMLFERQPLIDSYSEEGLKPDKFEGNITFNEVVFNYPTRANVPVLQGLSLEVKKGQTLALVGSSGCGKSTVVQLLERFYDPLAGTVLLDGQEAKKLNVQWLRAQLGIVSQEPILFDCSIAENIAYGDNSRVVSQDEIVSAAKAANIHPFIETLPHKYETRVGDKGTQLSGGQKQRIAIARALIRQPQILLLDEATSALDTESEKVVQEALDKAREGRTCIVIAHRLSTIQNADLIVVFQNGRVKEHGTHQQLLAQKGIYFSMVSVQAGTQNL

As to `CC[C@@H](Nc1nc(NCc2cccc(Cl)c2)c2ncn(C3CCCC3)c2n1)C(=O)O` [MRT2-237], the “relocalisation of ABCB4-I490T at bile canaliculi” value (“relocalisation of ABCB4-I490T” below) on ABCB4-I490T was “partially relocalised at bile canaliculi”. Further, at ABCB4-L556R, the “relocalisation of ABCB4-L556R at bile canaliculi” value (shortened to “relocalisation of ABCB4-L556R”) is recorded as “partially relocalised at bile canaliculi”. Moreover, the “maturation of ABCB4-I541F (expression of the mature form)” value (“maturation of ABCB4-I541F” for short) at ABCB4-I541F [1] is “significantly increase the expression of a mature form of ABCB4-I541F”. Further, the IC50 at CK1 was found to be 3.33 µM; on ABCB4-WT [2], 29.3 µM; on CDK2/A it was 3.4 µM; at CDK5/p25, 7.7 µM; at CDK9/T, 9 µM. At ABCB4-I541F [3], the “PC secretion activity of ABCB4-I541F (% of ABCB4-WT activity)” value was 13.0 ± 3.5%.

For the compound `CC(Nc1nc(NCc2ccccc2)c2ncn(C(C)C)c2n1)C(=O)O` (stereo not drawn) [MRT2-163], the IC50 on CK1 turned out to be 20 µM.

In [4], `CC[C@H](CO)Nc1nc(NCc2ccccc2)c2ncn(C(C)C)c2n1` [Roscovitine, (R)-roscovitine] showed a viability at 72 h, 25 µM of under 60%. Further, in the data set on HEK cells (100 µM, HEK cells expressing ABCB4-WT), the “cell viability after treatment at 100 µM” value is recorded as “massive cell death”. Further, the cytotoxicity result in the data set on HEK cells (increasing concentrations, HEK cells) was “important dose-dependent cytotoxicity”.

As for `CC[C@@H](Nc1nc(NCc2ccccc2)c2ncn(C(C)C)c2n1)C(=O)O` [M3, reference compound], the IC50 at CK1 and on CDK9/T was over 33 µM each time.

As for `CC[C@@H](Nc1nc(NCc2cccc(C(F)(F)F)c2)c2ncn(C(C)C)c2n1)C(=O)O` [MRT2-249], the “maturation of ABCB4-I541F” value at ABCB4-I541F [1] was “significantly increase the expression of a mature form of ABCB4-I541F”. For the same compound, the IC50 at CK1 is 5 µM; at CDK2/A, 9 µM; at CDK5/p25, 27 µM; on CDK9/T, over 33 µM.

As to `CC[C@@H](Nc1nc(NCc2cccc(C(F)(F)F)c2)c2ncn(C3CCCC3)c2n1)C(=O)O` [MRT2-239], at ABCB4-I541F [1], the “maturation of ABCB4-I541F” value is reported as “significantly increase the expression of a mature form of ABCB4-I541F”. Further, the IC50 on CK1 was 4 µM; at CDK2/A, 8 µM; at CDK5/p25, 11 µM; at CDK9/T, 20 µM.

Regarding `CC[C@@H](Nc1nc(NCc2ccc(Cl)c(F)c2)c2ncn(C3CCCC3)c2n1)C(=O)O` [MRT2-243], the “relocalisation of ABCB4-I490T” value at ABCB4-I490T was “partially relocalised at bile canaliculi”. The “relocalisation of ABCB4-L556R” value at ABCB4-L556R is recorded as “partially relocalised at bile canaliculi”. On ABCB4-I541F [1], the “maturation of ABCB4-I541F” value is on record as “significantly increase the expression of a mature form of ABCB4-I541F”. Besides, the IC50 on CK1 was determined as 6.1 µM; at ABCB4-WT [2], 17.6 µM; at CDK2/A, 3 µM; on CDK5/p25, 6.3 µM; on CDK9/T, 5 µM. At ABCB4-I541F [3], the “PC secretion activity of ABCB4-I541F (% of ABCB4-WT activity)” value is 22.5 ± 6.2%.

In the case of `CC[C@@H](Nc1nc(NCc2ccc(F)c(F)c2)c2ncn(C3CCCC3)c2n1)C(=O)O` [MRT2-241], on ABCB4-I541F [1], the “maturation of ABCB4-I541F” value was “significantly increase the expression of a mature form of ABCB4-I541F”. The IC50 on CK1 was 11 µM; on CDK2/A, 5.1 µM; on CDK5/p25 it was 17 µM; at CDK9/T, 8 µM.

Consider Cyclosporin A [CsA], for which the “rescue of maturation and canalicular localisation of ABCB4-I541F” value at ABCB4-I541F [5] is given as “partially rescued”. Besides, at ABCB4-WT [6], the “effect on the PC secretion activity of ABCB4” value is on record as “inhibits the PC secretion activity of ABCB4”.

`CC[C@@H](Nc1nc(NCc2cccc(F)c2)c2ncn(C3CCCC3)c2n1)C(=O)O` [MRT2-235]: the “relocalisation of ABCB4-I490T” value at ABCB4-I490T is listed as “partially relocalised at bile canaliculi”. Further, on ABCB4-L556R, the “relocalisation of ABCB4-L556R” value was “partially relocalised at bile canaliculi”. In addition, the “maturation of ABCB4-I541F” value on ABCB4-I541F [1] is given as “significantly increase the expression of a mature form of ABCB4-I541F”. For the same compound, the IC50 at CK1 is 7 µM; on ABCB4-WT [2], 21 µM; on CDK2/A it was 5.9 µM; at CDK5/p25, 8.3 µM; on CDK9/T, 7 µM. Also, on ABCB4-I541F [3], the “PC secretion activity of ABCB4-I541F (% of ABCB4-WT activity)” value turned out to be 19.0 ± 3.4%.

As to `CC(C)n1cnc2c(NCc3ccccc3)nc(N[C@@H](CO)C(=O)O)nc21` [MRT2-164], the IC50 at CK1 turned out to be 28 µM; on CDK9/T it was 17 µM.

With `CC[C@@H](Nc1nc(NCc2ccccc2)c2ncn(C3CCCC3)c2n1)C(=O)O` [MRT2-245], at ABCB4-I541F [1], the “maturation of ABCB4-I541F” value was “significantly increase the expression of a mature form of ABCB4-I541F”. In addition, the IC50 on CK1 was determined as 17 µM; on CDK2/A, 6.3 µM; at CDK5/p25, 15 µM; on CDK9/T, 28 µM.

In general, viability refers to a read-out of living cells in per cent, often relative to untreated cells. A higher viability goes with better survival.
